In the supplement of paper PMC10307832:

Legend:
Assay in all cases: relative viability (nuclei count vs DMSO), 5 days (fraction); higher = more cells survive
[1] = compound: C[C@@H](N)c1ccc(C(=O)Nc2ccnc3[nH]ccc23)cc1 + CC(C)C[C@H](NC(=O)[C@H](Cc1ccccc1)NC(=O)c1cnccn1)B(O)O [Bortezomib] (partner 0.002 µM)
Procedure, shortened: (§1)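 Dosing by pin tool came one day after lung cancer cell lines were seeded in 1536-well plates, using either one drug or a fixed anchor-drug dose plus five library-drug doses (not always all listed) in √10 steps. After 5 days, nuclei were counted on 4× images. Relative viability is treated-well nuclei count divided by vehicle-well nuclei count, and values are medians of duplicate plates.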

[2] = compound: C1CNCCC1C2=CC(=NN2)C3=CC=NC=C3 + CC(=O)c1c(C)c2cnc(Nc3ccc(N4CCNCC4)cn3)nc2n(C2CCCC2)c1=O [Palbociclib] (partner 0.5 µM)
Procedure, shortened: as §1

[3] = compound: C[C@@H](N)c1ccc(C(=O)Nc2ccnc3[nH]ccc23)cc1 + CS(=O)(=O)CCNCc1ccc(-c2ccc3ncnc(Nc4ccc(OCc5cccc(F)c5)c(Cl)c4)c3c2)o1 [Lapatinib] (partner 2 µM)
Procedure, shortened: as §1

[4] = compound: C[C@@H](N)c1ccc(C(=O)Nc2ccnc3[nH]ccc23)cc1 + COc1cc2c(Oc3ccc(NC(=O)C4(C(=O)Nc5ccc(F)cc5)CC4)cc3F)ccnc2cc1OCCCN1CCOCC1 [Foretinib] (partner 0.25 µM)
Procedure, shortened: as §1

Cell Line	relative viability ([1]; first compound 0.04 µM)	relative viability ([1]; first compound 0.1265 µM)	relative viability ([1]; first compound 0.4 µM)	relative viability ([1]; first compound 1.265 µM)	relative viability ([1]; first compound 4 µM)	relative viability ([2]; first compound 0.08 µM)	relative viability ([2]; first compound 0.8 µM)	relative viability ([2]; first compound 2.53 µM)	relative viability ([2]; first compound 8 µM)	relative viability ([3]; first compound 0.04 µM)	relative viability ([3]; first compound 0.1265 µM)	relative viability ([3]; first compound 0.4 µM)	relative viability ([3]; first compound 1.265 µM)	relative viability ([3]; first compound 4 µM)	relative viability ([4]; first compound 0.04 µM)	relative viability ([4]; first compound 0.1265 µM)	relative viability ([4]; first compound 0.4 µM)	relative viability ([4]; first compound 1.265 µM)	relative viability ([4]; first compound 4 µM)
LOU-NH91	0.504	0.56	0.515	0.468	0.429	0.539	0.539	0.545	0.589	0.701	0.749	0.801	0.575	0.709	0.814	0.981	0.851	0.804	0.683
LU99A	0.947	1.23	1.23	0.88	0.78	0.405	0.389	0.435	0.391	1.1	1.09	1.13	0.753	0.906		0.875	0.714	0.681	0.621
LXF-289	1.01	0.976	1.07	1.05	0.952	0.599	0.644	0.646	0.58	0.968	0.891	0.959	1.02	0.851	1.11	0.993	0.987	1.07	0.843
NCI-H23	1.21	1.17	1.11		1.03	0.444		0.602	0.647	0.945	1.27	1.18		0.924	0.985	1.09	0.981		1.01
NCI-H322M	1.4	1.38	1.34		1.72	0.489	0.425	0.468	0.508	0.807	0.63	0.665		0.824	1.29	1.19	1.29		1.39
NCI-H460	0.996	1.15	1.11	1.17	1.09	0.105	0.179	0.315	0.303	0.974	1.1	0.984	1.12	1.03	0.984	1.01	1	0.986	1
NCI-H520	0.756	0.716	0.628	0.638	0.54	0.176	0.167	0.219	0.147	1.08	0.953	0.949	0.742	1.03	0.862	0.707	0.817	1.28	0.95
NCI-H647	0.846	1.02	1.09	0.868	0.869	0.354	0.387	0.49	0.458	0.961	1.07	1.16	1.06	0.901	1.22	1.06	1.25	1.21	0.895
NCI-H650	0.586	0.695	0.86		0.64	0.334	0.352	0.4	0.406	0.626	0.837	0.859		0.696		0.991	1.03	0.899	0.712
NCI-H661	0.739	0.844	0.94	0.76	0.737	0.416	0.394	0.394	0.417	0.503	0.587	0.607	0.401	0.449	0.947	1.09	1.03	0.923	0.855
NCI-H727	1.09	1.05	1.38	0.67	1.12	0.627	0.685	0.66	0.646	0.863	0.957	1.02	0.513	0.989	1.07	1.07	1.36	1.26	1.24
NCI-H838	0.624	0.758	0.605	0.393	0.342	0.225	0.194	0.249	0.247	0.683	0.922	0.708	0.445	0.427	0.965	0.957	0.919	0.634	0.409
NCI-H1355	1.04	1.22	1.35		1.26	0.387	0.324	0.421	0.38	0.973	0.972	1.03		0.924	1.01	1.02	1.09	1.1	0.924
NCI-H1437	0.623	0.53	0.563	0.427	0.555	0.356	0.335	0.352	0.368	0.842	0.782	0.825	0.772	0.737	1.29	1.35	1.35	1.37	1.35
NCI-H1650	0.227	0.199	0.221	0.205	0.203	0.365	0.315	0.379	0.343	0.701	0.63	0.772	0.155	0.834	1.14	1.03	1.41	1.18	0.862
NCI-H1651	1.02	0.998	0.997	0.795	0.934	0.456	0.493	0.521	0.525	1.04	0.859	0.975	0.784	0.967	0.883	0.908	0.882	0.987	0.782
NCI-H1666	0.991	1.12	1.04	0.984	0.932	0.657	0.662	0.667	0.669	0.724	0.618	0.967	0.835	0.928	0.859	1.01	1.14	1.25	1.08
NCI-H1734	0.847	0.915	0.911		0.759	0.303	0.34	0.309	0.345	1.02	1.15	1.01		1.12	0.996	0.95	0.867	0.855	0.683
